Assay results taken from US12466821B2 (Novartis AG, priority 2018, dated 2025).

What was measured:
[1] = test system: Luciferase-encoding HCMV, AD169 strain; assay: CMV Luciferase assay (cellular herpesvirus replication); format: cell-based; details: Human betaherpesvirus 5, AD169, read-out: CMV-Luc Cellular EC50
Summary of the method: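 Neonatal human dermal fibroblasts were pretreated 1 h with compound (final 0.0159–50 μM or 0.00318–10 μM, 0.5% DMSO), then infected at MOI 1 with AD169 carrying pp28-promoter luciferase. After 72 h at 37 °C, Renilla-Glo luminescence normalized to no-virus and virus-only controls; EC50 by 4-parameter logistic model.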

[2] = biological target: human CMV DNA polymerase UL54 (Human cytomegalovirus (strain AD169) (HHV-5) (Human herpesvirus 5), UniProt P08546); assay: CMV polymerase biochemical assay (molecular beacon-based)
Summary of the method: (§1)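 Readout was beacon fluorescence (ex 480, em 535 nm), used to derive IC50. Each dNTP was at 1.25 uM, with 200 nM primer and 100 nM beacon, after a 30-min RT inhibitor preincubation. Enzyme was 625 pM for HSV UL30 (20 min RT reaction) or 100 pM for CMV UL54 (60 min RT), both sf9-expressed MBP fusions, in pH 7.5 Tris buffer with MgCl2.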

[3] = biological target: human HSV DNA polymerase UL30 (Human herpesvirus 1 (strain 17) (HHV-1) (Human herpes simplex virus 1), UniProt P04293); assay: HSV polymerase biochemical assay (molecular beacon-based)
Summary of the method: as §1

Row | SMILES | EC50 [1] | IC50 [2] | IC50 [3]
1 | O=C(NCc1ccc(Cl)cc1)c1cc(Br)c2n(c1=O)CCN(CCN1CCCS1(=O)=O)C2=O [Example 124, 9-bromo-N-(4-chlorobenzyl)-2-(2-(1,1-dioxidoisothiazolidin-2-yl)ethyl)-1,6-dioxo-1,3,4,6-tetrahydro-2H-pyrido[1,2-a]pyrazine-7-carboxamide] | 874 nM | 83.1 nM | 310 nM
2 | CS(=O)(=O)CCN1CCn2c(c(C#N)cc(C(=O)NCc3ccc(Cl)cc3)c2=O)C1=O [Example 125, N-(4-chlorobenzyl)-9-cyano-2-(2-(methylsulfonyl)ethyl)-1,6-dioxo-1,3,4,6-tetrahydro-2H-pyrido[1,2-a]pyrazine-7-carboxamide] | 20200 nM | 566 nM | 1010 nM
3 | CS(=O)(=O)CCCN1CCn2c(c(C#N)cc(C(=O)NCc3ccc(Cl)cc3)c2=O)C1=O [Example 126] | 50000 nM | 1200 nM | 1970 nM
4 | CN(CCN1CCn2c(c(C#N)cc(C(=O)NCc3ccc(Cl)cc3)c2=O)C1=O)S(C)(=O)=O [Example 127] | 19900 nM | 545 nM | 4790 nM
5 | CN(CCN1CCn2c(c(C3CC3)cc(C(=O)NCc3ccc(Cl)cc3)c2=O)C1=O)S(C)(=O)=O [Example 128, N-(4-chlorobenzyl)-9-cyclopropyl-2-(2-(N-methylmethylsulfonamido)ethyl)-1,6-dioxo-1,3,4,6-tetrahydro-2H-pyrido[1,2-a]pyrazine-7-carboxamide] | 2380 nM | 153 nM | 2560 nM
6 | CS(=O)(=O)C1(CN2CCn3c(c(C4CC4)cc(C(=O)NCc4ccc(Cl)cc4)c3=O)C2=O)CC1 [Example 132] | 70.7 nM | 3.1 nM | 138 nM
7 | CCc1cc(C(=O)NCc2ccc(Cl)cc2)c(=O)n2c1C(=O)N(CCN(C)S(C)(=O)=O)CC2 [Example 134, N-(4-chlorobenzyl)-9-ethyl-2-(2-(N-methylmethylsulfonamido)ethyl)-1,6-dioxo-1,3,4,6-tetrahydro-2H-pyrido[1,2-a]pyrazine-7-carboxamide] | 2870 nM | 268 nM | 2120 nM
8 | CCc1cc(C(=O)NCc2ccc(Cl)cc2)c(=O)n2c1C(=O)N(CC1(S(C)(=O)=O)CC1)CC2 [Example 136] | 86.7 nM | 2.5 nM | 136 nM
9 | CN(CCN1CCn2c(c(CO)cc(C(=O)NCc3ccc(Cl)cc3)c2=O)C1=O)S(C)(=O)=O [Example 137, N-(4-chlorobenzyl)-9-(hydroxylmethyl)-2-(2-(N-methylmethylsulfonamido)ethyl)-1,6-dioxo-1,3,4,6-tetrahydro-2H-pyrido[1,2-a]pyrazine-7-carboxamide] | 19700 nM | 348 nM | 3900 nM
10 | CS(=O)(=O)CCCN1CCn2c(c(CO)cc(C(=O)NCc3ccc(Cl)cc3)c2=O)C1=O [Example 139] | 50000 nM | 989 nM | 3580 nM
11 | CN(CCN1CCn2c(c(CF)cc(C(=O)NCc3ccc(Cl)cc3)c2=O)C1=O)S(C)(=O)=O [Example 140, N-(4-chlorobenzyl)-9-(fluoromethyl)-2-(2-(N-methylmethylsulfonamido)ethyl)-1,6-dioxo-1,3,4,6-tetrahydro-2H-pyrido[1,2-a]pyrazine-7-carboxamide] | 2220 nM | 242 nM | 4260 nM
12 | O=C(NCc1ccc(Cl)cc1)c1cc(CF)c2n(c1=O)CCN(CCN1CCCS1(=O)=O)C2=O [Example 141] | 1650 nM | 72.8 nM | 328 nM
13 | CN(CCN1CCn2c(c(C(F)F)cc(C(=O)NCc3ccc(Cl)cc3)c2=O)C1=O)S(C)(=O)=O [Example 143, N-(4-chlorobenzyl)-9-(difluoromethyl)-2-(2-(N-methylmethylsulfonamido)ethyl)-1,6-dioxo-1,3,4,6-tetrahydro-2H-pyrido[1,2-a]pyrazine-7-carboxamide] | 30600 nM | 649 nM | 6310 nM
14 | CS(=O)(=O)CCCN1CCn2c(c(C(F)F)cc(C(=O)NCc3ccc(Cl)cc3)c2=O)C1=O [Example 145] | 30200 nM | 1410 nM | 6820 nM
15 | O=C(NCc1ccc(Cl)cc1)c1cc(C(F)(F)F)c2n(c1=O)CCN(CCN1CCCS1(=O)=O)C2=O [Example 147] | 21400 nM | 558 nM | 5050 nM
16 | Cc1cc(C(=O)NCc2ccc(Cl)cc2)c(=O)n2c1C(=O)N(CCN(C)S(C)(=O)=O)CC2 [Example 148, N-(4-chlorobenzyl)-9-methyl-2-(2-(N-methylmethylsulfonamido)ethyl)-1,6-dioxo-1,3,4,6-tetrahydro-2H-pyrido[1,2-a]pyrazine-7-carboxamide] | 1660 nM | 181 nM | 1510 nM
17 | Cc1cc(C(=O)NCc2ccc(Cl)cc2)c(=O)n2c1C(=O)N(CC1(N(C)S(C)(=O)=O)CC1)CC2 [Example 149] | 7910 nM | 112 nM | 2200 nM
18 | Cc1cc(C(=O)NCc2ccc(Cl)cc2)c(=O)n2c1C(=O)N(CCCS(C)(=O)=O)CC2 [Example 152] | 9190 nM | 653 nM | 1670 nM
19 | Cc1cc(C(=O)NCc2ccc(Cl)cc2)c(=O)n2c1C(=O)N(CCS(C)(=O)=O)CC2 [Example 153] | 626 nM | 118 nM | 388 nM
20 | CN(CCN1CCn2c(c(C#CCO)cc(C(=O)NCc3ccc(Cl)cc3)c2=O)C1=O)S(C)(=O)=O [Example 155, N-(4-chlorobenzyl)-9-(3-hydroxyprop-1-yn-1-yl)-2-(2-(N-methylmethylsulfonamido)ethyl)-1,6-dioxo-1,3,4,6-tetrahydro-2H-pyrido[1,2-a]pyrazine-7-carboxamide] | 37200 nM | 201 nM | 1950 nM
21 | CS(=O)(=O)CCCN1CCn2c(c(C#CCO)cc(C(=O)NCc3ccc(Cl)cc3)c2=O)C1=O [Example 156] | 50000 nM | 913 nM | 2110 nM
22 | CN(CCN1CCn2c(c(CCCO)cc(C(=O)NCc3ccc(Cl)cc3)c2=O)C1=O)S(C)(=O)=O [Example 157, N-(4-chlorobenzyl)-9-(3-hydroxypropyl)-2-(2-(N-methylmethylsulfonamido)ethyl)-1,6-dioxo-1,3,4,6-tetrahydro-2H-pyrido[1,2-a]pyrazine-7-carboxamide] | 7720 nM | 223 nM | 1800 nM
23 | CS(=O)(=O)CCCN1CCn2c(c(N3CCCC3)cc(C(=O)NCc3ccc(Cl)cc3)c2=O)C1=O [Example 158, N-(4-chlorobenzyl)-2-(3-(methylsulfonyl)propyl)-1,6-dioxo-9-(pyrrolidin-1-yl)-1,3,4,6-tetrahydro-2H-pyrido[1,2-a]pyrazine-7-carboxamide] | 13300 nM | 370 nM | 4090 nM
24 | Cc1nc(-c2cc(C(=O)NCc3ccc(Cl)cc3)c(=O)n3c2C(=O)N(CCS(C)(=O)=O)CC3)no1 [Example 159, N-(4-chlorobenzyl)-9-(5-methyl-1,2,4-oxadiazol-3-yl)-2-(2-(methylsulfonyl)ethyl)-1,6-dioxo-1,3,4,6-tetrahydro-2H-pyrido[1,2-a]pyrazine-7-carboxamide] | 26600 nM | 1780 nM | 5660 nM
25 | N#Cc1ccc(CNC(=O)c2cc(F)c3n(c2=O)CCN(CC2(S(=O)(=O)C4CC4)CC2)C3=O)cc1 [Example 161] | 59.9 nM | 1.5 nM | 57.1 nM
